Source: patent US11192949B2, “HIV-1 vaccine” (CASE WESTERN RESERVE UNIVERSITY, priority 2013, dated 2021)
Like-named read-outs stand apart in the source and are kept apart here.

Experiments:
[1] = system: A74 passage control week 21 virus (PC.21); assay: Drug susceptibility assay (reverse transcriptase activity) in U87.CD4.CCR5 cells, passage control virus PC.21; type: cell-based, HIV-1
Description: (§1) (A) Virus A74 derived from passage control week 21 (PC.21) and MVC treated week 21 (MVC.21) cultures were used to infect U87.CD4.CCR5 cells in the presence of increasing concentrations of MVC. (B) These viruses were also used to infect U87.CD4.CCR5 cells in the presence of maximal inhibitory concentrations (10 μM) of CCR5 antagonists MVC and TAK-779 and fusion inhibitor enfuvirtide (T20). Reverse transcriptase activity was measured 7 days post infection. Percent infection was calculated relative to the no drug control for each virus. Data shown are means of triplicates with error bars representing standard deviations.
(§2) FIG. 15 illustrates a plot showing sensitivity to attachment inhibitor BMS-806. […] Reverse transcriptase activity was measured five days post infection and percent inhibition calculated based on the no drug condition. Data represents means of triplicates with standard deviations.
(§3) U87.CD4.CCR5 cells were plated in 96-well format (1×10^4 cells/well) for 24 hr. Cells were then treated for 2 hr with 5-fold dilutions of MVC (100 μM to 2×10^−6 μM) and then infected at a multiplicity of infection (MOI) of 0.001 infectious units (IU)/cell. All assays were performed in triplicate. After 24 hr, cells were washed in 1×PBS to remove free virus and media containing the appropriate MVC drug dilutions was added. Viral replication was measured daily by radio-labeled reverse transcriptase assay using a Packard beta counter to quantify counts per minute (cpm). Drug sensitivity curves were generated using non-linear regression curve fitting features of GraphPad Prism 5 software.

[2] = system: A74 MVC treated week 21 virus (MVC.21); assay: Drug susceptibility assay (reverse transcriptase activity) in U87.CD4.CCR5 cells, MVC selected virus MVC.21; type: cell-based, HIV-1
Description: as §1, §2, §3

[3] = system: HIV-1 subtype B primary isolate B6; conditions: read-out: mean IC50; U87.CD4.CCR5; virus B6
Description: as §3
(§4) We assessed “intrinsic” susceptibilities of HIV-1 subtype A, B, and C primary isolates to maraviroc. Multiple cycle drug susceptibility assays were performed in U87.CD4.CCR5 cells in the presence of 5-fold decreasing concentrations of MVC starting at 100 μM.

[4] = system: HIV-1 subtype C primary isolate C8; conditions: read-out: mean IC50; U87.CD4.CCR5; virus C8
Description: as §3, §4

[5] = system: B6.MVC.21 virus; conditions: U87.CD4.CCR5
Description: as §3
(§5) Reverse transcriptase (RT) activity was monitored in the cell-free supernatant for each weekly passage and inhibitor concentration increased when RT activity reached 2-fold over background.

[6] = system: B6.PC.21 virus; conditions: U87.CD4.CCR5
Description: as §3, §5

[7] = system: HIV-1 subtype A primary isolate A74; assay: Multiple cycle drug sensitivity assay in PBMC, virus A74; type: cell-based
[8] = system: A74 passage control week 21 virus (PC.21); assay: Multiple cycle drug sensitivity assay in PBMC, virus PC.21; type: cell-based, HIV-1
Description: (§6) U87.CD4.CCR5 cells were obtained through the AIDS Research and Reference Reagent Program, Division of AIDS, NIAID, NIH. U87.CD4.CCR5 cells were maintained in DMEM supplemented with 10% FBS, 100 μg/mL penicillin/streptomycin, 300 μg/mL G418, and 1 μg/mL puromycin (Invitrogen, Carlsbad, Calif.). 293T cells were cultured in DMEM supplemented with 10% FBS and 100 μg/mL penicillin/streptomycin. Peripheral blood mononuclear cells (PBMCs) were obtained from whole blood extracted from a HIV negative donor by Ficoll-Paque centrifugation. PBMC cultures were stimulated with 1 μg/mL phytohemagglutinin (PHA; Gibco, Carlsbad, Calif.) for 48 hrs in RPMI 1640 medium (Gibco) containing 10% FBS and 100 μg/mL penicillin/streptomycin. Cells were maintained thereafter in RPMI 1640 medium with 10% FBS, 100 μg/mL penicillin/streptomycin, and […] interleukin-2 (IL-2; Gibco).
(§7) All assays were performed in triplicate.
(§8) Therefore, multiple cycle drug sensitivity assays were performed in peripheral blood mononuclear cells (PBMC) isolated from an HIV negative donor with PC.21 and MVC.21.

[9] = system: A74 MVC treated week 21 virus (MVC.21); assay: Multiple cycle drug sensitivity assay in PBMC, virus MVC.21; type: cell-based, HIV-1
Description: as §6, §7, §8

[10] = system: gp120 chimeric virus clone MVC.21.132 (A74.MVC.21.132)
Description: as §3
(§9) Gp120 chimeric viruses were cloned into an NL4-3 backbone from passage control and virus passaged in the presence of MVC escalations using the yeast homologous recombination-gap repair technique. From this point forward, the viruses and clones are referred to as […] (passage control) or MVC (maraviroc selected). 21 (number of passages). 1 (clone number) or PC.21.1 or MVC.21.1. The gp120 regions of the PC.1 (starting virus), PC.21 and MVC.21 viruses were PCR amplified using primers F_gp120 5′-[…]-3′ (SEQ ID NO: 1) and B_gp120 5′-[…]-3′ (SEQ ID NO: 2). Briefly, these gp120 PCR products were then co-transformed with a SacI-linearized pREC_NFL_Δgp120/URA3 into Saccharomyces cerevisiae MYA-906 cells (ATCC). Following homologous recombination, plasmids were extracted from the yeast cells and transformed into electrocompetent Escherichia coli Stbl4 cells (Invitrogen). Individual bacterial colonies were grown and plasmids were extracted using Qiagen miniprep kits. Chimeric pREC_NFL_gp120 plasmids were co-transfected into 293T cells (3×10^4 cells/well) along with the complementing plasmid pCMV_cplt using Fugene 6 reagent (Promega, Madison, Wis.) as described. Heterodiploid virus particles containing one copy of the NFL and cplt HIV-1 RNAs represent approximately half of the virus derived from 293T cell transfections and can be propagated on U87.CD4.CCR5 cells to produce replication competent virus with a complete virus genome. Virus stocks of each clone were titered as described above. The DNA sequences obtained in the course of this work were deposited in the GenBank/EMBL/DDBJ databases under the following accession numbers: env(gp120) (JX993942-JX993981).
For multiple replication cycle drug susceptibility assays, U87.CD4.CCR5 cells were plated as above and pretreated with 5-fold dilutions of MVC (100 μM to 2×10^−6 μM). Cells were infected at an MOI of 0.001 IU/cell with NL4-3/gp120 chimeric virus in quadruplicate. […] Reverse transcriptase activity in supernatant was monitored as previously described on days 4 through 7 post infection.

[11] = system: gp120 chimeric virus clone MVC.21.122.425K
Description: as §3

[12] = system: gp120 chimeric virus clone MVC.21.119
Description: as §3, §9

[13] = system: gp120 chimeric virus clone MVC.21.122; conditions: U87.CD4.CCR5
Description: as §3, §9

[14] = system: gp120 chimeric virus clone MVC.21.123
Description: as §3, §9

[15] = system: gp120 chimeric virus clone MVC.21.128
Description: as §3, §9

[16] = system: gp120 chimeric virus clone PC.1.1
Description: as §3, §9

[17] = system: gp120 chimeric virus clone PC.21.109
Description: as §3, §9

[18] = system: gp120 chimeric virus clone PC.21.111
Description: as §3, §9

[19] = system: subtype B patient-derived MVC resistant virus R3; conditions: clone R3; multiple cycle conditions
Description: For multiple replication cycle drug susceptibility assays, U87.CD4.CCR5 cells were plated as above and pretreated with 5-fold dilutions of MVC (100 μM to 2×10^−6 μM). Cells were infected at an MOI of 0.001 IU/cell with NL4-3/gp120 chimeric virus in quadruplicate. After 24 hours, viral inoculums were removed and replaced with media containing the appropriate MVC dilutions. Reverse transcriptase activity in supernatant was monitored as previously described on days 4 through 7 post infection.

[20] = system: A74.MVC.21.132 psuedovirus
Description: (§10) For single replication cycle drug susceptibility assays, U87.CD4.CCR5 cells in 96-well format (1×10^4 cells/well) were pretreated for 2 hours with 10-fold dilutions of MVC (1 μM to 1×10^−7 μM) then infected in triplicate with luciferase encoding psuedovirus. After 48 hours, supernatant was removed and cells were lysed using 50 μL Glo lysis buffer (Promega, Madison, Wis.). Cells were lysed for 20 minutes at room temperature, transferred to white polystyrene 96 well plates, and read with a PerkinElmer VICTOR plate reader using injectors to introduce 50 μL Bright Glo reagent per well (Promega, Madison, Wis.). Luciferase activity was measured as relative light units (RLU).

[21] = system: subtype B patient-derived MVC resistant virus R3; conditions: clone R3; single cycle conditions
Description: as §10

[22] = system: HIV-1 subtype A primary isolate A74; conditions: U87.CD4.CCR5; virus A74
[23] = system: CC1/85 MVC-resistant virus containing the T316 and V323 V3 loop mutations; conditions: 1 μM MVC; cited from earlier work
[24] = highest MVC concentrations (4, 20, 100 μM)

## COc1ccnc2[nH]cc(C(=O)C(=O)N3CCN(C(=O)c4ccccc4)C[C@H]3C)c12 [BMS-806]
[1]; highest concentrations tested (50 and 5 μM), PC.21
  inhibition: 46%
[2]; highest concentrations tested (50 and 5 μM), MVC.21
  inhibition: 98%

## Cc1ccc(-c2ccc3c(c2)C=C(C(=O)Nc2ccc(C[N+](C)(C)C4CCOCC4)cc2)CCC3)cc1.[Cl-] [TAK-779]
[1]; 10 μM (IC99 inhibitory concentration), PC.21
  inhibition of virus replication: completely blocked
[2]; 10 μM (IC99 inhibitory concentration), MVC.21
  inhibition of virus replication: cross resistance

## Maraviroc [MVC]
[3]
  IC50: 2 nM
[4]
  IC50: 2 nM
[1]; virus PC.21
  IC50: 1 nM
  MPI (maximal percent inhibition): 100%
[2]; virus MVC.21
  IC50: 216 nM
[2]; virus MVC.21, highest drug concentration tested 100 μM
  MPI (maximal percent inhibition): 81%
[5]; B6 week 21 inhibitor treated culture
  IC50: 14 nM
[5]; virus B6.MVC.21
  MPI (maximal percent inhibition): 99%
[6]; B6 week 21 control culture
  IC50: 8 nM
[6]; virus B6.PC.21
  MPI (maximal percent inhibition): 100%
[7]
  IC50: 5 nM
  MPI: 100%
[8]
  IC50: 5 nM
  MPI: 98%
[8]; read-out: IC50
  IC50: 6 nM
[9]
  IC50: 300 nM
  MPI: 73%
[10]; A74.MVC.21.132, multiple replication cycle conditions
  rightward shift in IC50 compared with MVC sensitive clone A74.PC.21.109: 17 fold
[10]; clone MVC.21.132
  IC50 fold change relative to input gp120 clone PC.1.1: 10 fold
  MPI: > 95%
[10]; clone MVC.21.132, U87.CD4.CCR5
  IC50: 8.8 nM
[11]
  shift in IC50 relative to MVC.21.122: 36 fold
[11]; U87.CD4.CCR5
  IC50: 33 nM
[12]
  IC50 fold change relative to input gp120 clone PC.1.1: 40 fold
  MPI: > 95%
[12]; U87.CD4.CCR5
  IC50: 34 nM
[12]; [24]
  inhibition (RT activity): 97%
[13]
  IC50: 0.9 nM
[14]
  IC50 fold change relative to input gp120 clone PC.1.1: 11 fold
  MPI: > 95%
[15]
  IC50 fold change relative to input gp120 clone PC.1.1: 40 fold
  MPI: > 95%
[15]; U87.CD4.CCR5
  IC50: 37 nM
[16]
  sensitivity to MVC inhibition: sensitive
[17]
  sensitivity to MVC inhibition: sensitive
[17]; [24]
  inhibition (RT activity): 99.9%
[18]
  sensitivity to MVC inhibition: sensitive
[19]
  maximal percent inhibition (MPI): 61%
[20]
  resistance in single cycle assay: resistance could not be detected
[21]
  maximal percent inhibition (MPI): 56%
[22]
  IC50: 10 nM
  MPI (maximal percent inhibition): 99%
[23]
  level of replication in the presence of drug as compared to the absence of drug: 25%
